{
  "source": "patent US20260297022A1",
  "about": "“PROCESS FOR THE PREPARATION OF SULFAMOYLBENZOIC ACID DERIVATIVES” (IAMA THERAPEUTICS S.R.L., priority 2023, published 2026)",
  "data": [
    {"test": "Aqueous kinetic solubility from a solution of 10 mM DMSO in phosphate buffered saline (PBS) at pH 7.4", "format": "physicochemical", "details": "PBS pH 7.4, 25° C., target concentration 250 μM, 2.5% DMSO, UV quantification at 215 nm, read-out: Kinetic sol. PBS pH 7.4", "description": "(§1) Aqueous kinetic solubility of derivative compounds of the benzoic acid starting from a solution of 10 mM DMSO in phosphate buffered saline (PBS) at pH 7.4\n(§2) Aliquots of 30 μL of stock solution of the test compound in 10 mM DMSO were incubated in phosphate buffered saline (PBS) at pH 7.4 at 25° C. for 24 hours. After centrifugation, the compound dissolved in the supernatant was quantified by […].\n(§3) The target concentration was 250 μM with a final concentration of 2.5% DMSO. Aqueous kinetic solubility was determined by UV quantification at 215 nm. The kinetic solubility was then calculated by dividing the peak area of the supernatant by the peak area of the reference and multiplying by the reference concentration (μM) and the dilution factor (1.25).", "units": {"solubility kinetic at 24 h": "µM"}, "values": [
      {"smiles": "CN(C)S(=O)(=O)c1cc(C(=O)O)ccc1NCCCCCCCC(F)(F)F", "note": "[Compound 1, 3-(dimethylsulfamoyl)-4-(8,8,8-trifluorooctylamino)benzoic acid]", "solubility kinetic at 24 h": ">250"},
      {"smiles": "CCCCCCNc1ccc(C(=O)O)cc1S(N)(=O)=O", "note": "[Compound 2]", "solubility kinetic at 24 h": 238},
      {"smiles": "CCCCCCCCNc1ccc(C(=O)O)cc1S(N)(=O)=O", "note": "[Compound 3]", "solubility kinetic at 24 h": ">250"},
      {"smiles": "CCCCCCNc1ccc(C(=O)O)cc1S(=O)(=O)NC", "note": "[Compound 4]", "solubility kinetic at 24 h": 247},
      {"smiles": "CCCCCCNc1ccc(C(=O)O)cc1S(=O)(=O)N(C)C", "note": "[Compound 5]", "solubility kinetic at 24 h": 243},
      {"smiles": "CN(C)S(=O)(=O)c1cc(C(=O)O)ccc1NCCC(C)(C)C", "note": "[Compound 6]", "solubility kinetic at 24 h": ">250"},
      {"smiles": "CN(C)S(=O)(=O)c1cc(C(=O)O)ccc1NCCCC(F)(F)F", "note": "[Compound 7]", "solubility kinetic at 24 h": 245},
      {"smiles": "CN(C)S(=O)(=O)c1cc(C(=O)O)ccc1NCCCCCC(F)(F)F", "note": "[Compound 8]", "solubility kinetic at 24 h": 249},
      {"smiles": "COCCNc1ccc(C(=O)O)cc1S(=O)(=O)N(C)C", "note": "[Compound 9]", "solubility kinetic at 24 h": 237},
      {"smiles": "COCCCCNc1ccc(C(=O)O)cc1S(=O)(=O)N(C)C", "note": "[Compound 10]", "solubility kinetic at 24 h": 247},
      {"smiles": "COCCCCCCNc1ccc(C(=O)O)cc1S(=O)(=O)N(C)C", "note": "[Compound 11]", "solubility kinetic at 24 h": ">250"},
      {"smiles": "O=C(O)c1ccc(NCCCCCCCC(F)(F)F)c(S(=O)(=O)NC2CCCC2)c1", "note": "[Compound 12]", "solubility kinetic at 24 h": 223},
      {"smiles": "O=C(O)c1ccc(NCCCCCCCC(F)(F)F)c(S(=O)(=O)N2CCOCC2)c1", "note": "[Compound 13]", "solubility kinetic at 24 h": 244},
      {"smiles": "O=C(O)c1ccc(NCCCCCCCC(F)(F)F)c(S(=O)(=O)NC2CCOCC2)c1", "note": "[Compound 14]", "solubility kinetic at 24 h": 244},
      {"smiles": "CN(C)S(=O)(=O)c1cc(C(=O)O)c(Cl)cc1NCCCCCCCC(F)(F)F", "note": "[Compound 16]", "solubility kinetic at 24 h": 241},
      {"smiles": "CNS(=O)(=O)c1cc(C(=O)O)ccc1NCCCCCCCC(F)(F)F", "note": "[Compound 18]", "solubility kinetic at 24 h": 242},
      {"smiles": "COc1cc(NCCCCCCCC(F)(F)F)c(S(=O)(=O)N(C)C)cc1C(=O)O", "note": "[Compound 20]", "solubility kinetic at 24 h": 188}
    ]},
    {"test": "Aqueous kinetic solubility from a solution of 10 mM DMSO in phosphate buffered saline (PBS) at pH 7.4", "format": "physicochemical", "details": "aqueous buffer, PBS pH 7.4, 25° C., target concentration 250 μM, 2.5% DMSO, UV quantification at 215 nm, read-out: Kinetic sol. PBS pH 7.4", "description": "as §1, §2, §3", "units": {"solubility kinetic at 24 h": "µM"}, "values": [
      {"smiles": "CN(C)S(=O)(=O)c1cc(C(=O)O)ccc1N1CCN(CCCCC(F)(F)F)CC1", "note": "[Compound 15]", "solubility kinetic at 24 h": "> 250"},
      {"smiles": "C=CCCCCCNc1ccc(C(=O)O)cc1S(=O)(=O)N(C)C", "note": "[Compound 17]", "solubility kinetic at 24 h": "> 250"},
      {"smiles": "NS(=O)(=O)c1cc(C(=O)O)c(O)cc1NCCCCCCCC(F)(F)F", "note": "[Compound 19]", "solubility kinetic at 24 h": "> 250"}
    ]}
  ]
}
